Results from paper PMC11819963, “In Vitro CO-Releasing and Antioxidant Properties of Sulfonamide-Based CAI-CORMs in a H2O2-Stimulated Human Achilles Tendon-Derived Cell Model” (Molecules, 2025).
Where two headings read alike, the source gives them in different places.

Key:
[1] = target: T1, hCA II (Homo sapiens, UniProt P00918); experiment: stopped-flow CO2 hydrase assay, hCA II; format: biochemical; details: mean from three assays, errors ±5–10%
Experimental: (§1) The CO2 concentrations ranged from 1.7 to 17 mM for the determination of the kinetic parameters and inhibition constants. […] The uncatalysed rates were determined in the same manner and subtracted from the total observed rates. […] The inhibition constants were obtained by non-linear least-squares methods using PRISM 3 and the Cheng–Prusoff equation and represent the mean from at least three different determinations.

[2] = target: T2, hCA IX (Homo sapiens, UniProt Q16790); experiment: stopped-flow CO2 hydrase assay, hCA IX; format: biochemical; details: mean from three assays, errors ±5–10%
Experimental: as §1

[3] = target: T3, hCA XII (Homo sapiens, UniProt O43570); experiment: stopped-flow CO2 hydrase assay, hCA XII; format: biochemical; details: mean from three assays, errors ±5–10%
T3 sequence (O43570 25-354): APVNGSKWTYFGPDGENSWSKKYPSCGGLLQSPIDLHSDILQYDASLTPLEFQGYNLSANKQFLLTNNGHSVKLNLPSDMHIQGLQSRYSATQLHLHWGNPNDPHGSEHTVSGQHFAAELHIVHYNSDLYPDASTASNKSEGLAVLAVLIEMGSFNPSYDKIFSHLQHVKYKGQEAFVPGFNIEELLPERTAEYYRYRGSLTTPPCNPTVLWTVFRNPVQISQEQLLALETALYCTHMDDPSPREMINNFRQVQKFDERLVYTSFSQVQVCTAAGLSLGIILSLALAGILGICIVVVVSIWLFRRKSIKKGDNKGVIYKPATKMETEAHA
Experimental: as §1

[4] = tested on: reduced myoglobin (deoxy-Mb); experiment: myoglobin carbonylation assay (CO release); set-up: species or system horse
Experimental: To determine the CO-releasing properties of the designed compounds, the myoglobin carbonylation assay was employed, with some deviations from the standard protocol, as previously reported. The analysed compounds were incubated with reduced myoglobin (deoxy-Mb), and spectra were recorded every 30 min up to 300 min. The release of CO was assessed by evaluating the formation of carbonylated myoglobin (Mb-CO) over time (Figure 3). […] The releasing properties of the compounds were also expressed as CO units released after 300 min of incubation with Mb, as reported in Figure S1 (Supplementary Information File).
All the employed reagents were of analytical grade and acquired from Merck (Milan, Italy). Gaseous CO was obtained from Rivoira (Milan, Italy). A Shimadzu UV1900 UV-Vis Spectrophotometer from 275 to 700 nm at the scanning rate of 200 nm/min was used to record UV-Vis absorption spectra in a disposable plastic cuvette (path length 0.44 cm). The second derivative spectra were generated with the Origin Lab software, and the Savitzky–Golay method was applied using 25 data points for the differentiation process. Neither an increase nor a decrease in the number of points caused changes in the wavelength or in the bandwidth. Lyophilised horse heart Mb was dissolved in phosphate-buffered saline flushed with N2 (PBS, 0.01 M, pH 7.4 to a 20–22 μM final concentration). Two millilitres of this freshly prepared stock solution were placed in a cuvette to record the UV-Vis absorption spectrum of met-Mb. Next, the solutions were divided into two halves: 10 μL of sodium dithionite (30 mg/mL) was added to the first half (reference), and the UV–Vis spectrum of deoxy-Mb was registered. After that, the solution was flushed with CO gas, and the Mb-CO spectrum was acquired. Sodium dithionite was added to the second half (sample), and a spectrum was recorded. Afterwards, a CORM DMSO solution was added to a final CORM concentration of 1.67 μM, 3.33 μM or 20 μM and gently mixed. The solution was covered with 300 μL of light mineral oil to avoid CO escaping and oxygenation of Mb, and the absorption spectrum was recorded at t = 0. Spectra were acquired every 30 min for 300 min, keeping the sample at 37 °C. When necessary, a freshly prepared sodium dithionite solution was added. After 300 min, the total Mb concentration at the end of the assay was determined by flushing the sample with CO gas. Mb-CO concentration at each time point was determined, as previously reported. Each experiment was replicated three times, and the data were expressed as mean ± SEM.

[5] = tested on: Human Achilles tendon-derived tenocytes; experiment: cell metabolic activity (MTT test), basal conditions; format: cell-based
Experimental: Human Achilles tendon-derived tenocytes (#TEN-F) were purchased by ZenBio Inc. (Durham, NC, USA) and maintained in complete alpha-MEM (EuroClone, Milan, Italy) supplemented with 10% of heat-inactivated FBS (Gibco, Thermo Fisher Scientific, Waltham, MA, USA) and 1% penicillin/streptomycin (EuroClone, Milan, Italy) at 37 °C and 5% CO2 and used from passage 3 up to passage 6.
Cells were seeded in 96-well plates (0.5 × 10^4/well) or 6-well plates (0.5 × 10^5/well) (ThermoFisher Scientific, Waltham, MA, USA) and left to adhere overnight at 37 °C and 5% CO2. For cell metabolic activity experiments (MTT test), tenocytes were treated with increasing concentrations of compounds (range 0–50 µM) for 24 and 48 h. Compounds were dissolved in DMSO to obtain a 200 mM stock solution, and they were afterwards diluted in complete alpha-MEM (DMSO final concentration = 0.1%) for further analyses. In a second set of MTT experiments, tenocytes were pre-incubated with 100 µM H2O2 for 3 h. After that, the pre-incubation medium was discarded and replaced with a fresh one containing the proper compound at increasing concentrations for 24 and 48 h. At the established time points, samples were processed for further analyses.
Tenocytes were seeded in 96 well tissue culture-treated plates (Falcon®, Corning Incorporated, Brooklyn, NY, USA) at 0.5 × 10^4 cells/well. Untreated cells (0 µM) were set as control (100% of cell metabolic activity). At the established time points, the exposure media were replaced by fresh medium containing 3-(4,5-dimethylthiazol-2-yl)-2,5-diphenyltetrazolium bromide (MTT) 0.5 mg/mL (Merck, Darmstadt, Germany) and processed as elsewhere reported [18]. The optical density in each well was measured using a spectrophotometer (Thermo Fisher Scientific, Waltham, MA, USA) at a wavelength of 540 nm. Each experiment was performed three times in triplicates per experimental condition (n = 9).

[6] = target: hCA I (Homo sapiens, UniProt P00915); details: cited from earlier work
Chain of hCA I (P00915 whole entry): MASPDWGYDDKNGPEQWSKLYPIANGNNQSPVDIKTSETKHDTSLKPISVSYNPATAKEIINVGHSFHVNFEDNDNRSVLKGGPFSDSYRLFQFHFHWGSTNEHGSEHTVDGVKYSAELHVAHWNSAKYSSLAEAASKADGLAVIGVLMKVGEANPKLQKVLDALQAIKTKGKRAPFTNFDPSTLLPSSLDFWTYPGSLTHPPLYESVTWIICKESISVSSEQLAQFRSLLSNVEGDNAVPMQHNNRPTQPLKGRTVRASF

[7] = target: T1, hCA II; set-up: method as in earlier work; details: alkyne precursors marked a in Table S1; cited from earlier work
[8] = target: T2, hCA IX; set-up: method as in earlier work; details: alkyne precursors marked a in Table S1; cited from earlier work
[9] = target: T3, hCA XII; set-up: method as in earlier work; details: alkyne precursors marked a in Table S1; cited from earlier work

C#CCOc1ccc(S(N)(=O)=O)cc1.[C-]#[O+].[C-]#[O+].[C-]#[O+].[C-]#[O+].[C-]#[O+].[C-]#[O+].[Co].[Co] [1b, 4-(Prop-2′-ynyloxy)benzenesulfonamide hexacarbonyldicobalt]
Ki [1]: 40.9 nM | Ki [2]: 5.4 nM | Ki [3]: 0.9 nM | CO-release profile (MbCO formed over time) ([4]; 1:1 and 1:6 CORM:Mb, up to 300 min, comparison within series): the most efficient | MbCO formed ([4]; after 210 min of incubation, 1:1 CORM–Mb ratio (about 20 μM CORM)): 6.39 µM | cell metabolic activity (MTT) ([5]; 24 h exposure, 6.25–50 µM, vs untreated control): significantly increase cell metabolic activity | concentration at which cytotoxicity is seen (MTT) ([5]; 48 h exposure): ≥ 25 µM | Ki ([6]; stopped-flow CO2 hydrase assay, cells marked a): 1340 nM

C#CCN(CC#C)c1ccc(S(N)(=O)=O)cc1 [C, 4-(diprop-2′-ynylamino)benzenesulfonamide]
Ki ([6]; alkyne precursors marked a in Table S1): 6400 nM | Ki [7]: 1780 nM | Ki [8]: 9 nM | Ki [9]: 4.9 nM
